Test results published in patent US20250154169A1, “COMPOUNDS AND METHODS FOR MODULATING SPLICING” (REMIX THERAPEUTICS INC., priority 2021, published 2025).
“And” between values parts separate entries of the source, which are not always exact repeats. Identical values can stand only once. Like-named read-outs stand apart in the source and are kept apart here.

Key:
[1] = system: SMN2 mRNA; test: Splicing RT-qPCR gene panel, SMN2 canonical junction (CJ) mRNA; assay type: cell-based, human; conditions: Homo sapiens, Tables 4A/4B, read-out: SMN2 (IC50, decrease in CJ mRNA, gene panel)
Summary of the method: (§1)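 A673 or K562 cells treated 24 h at 37° C. with an 11-point 3-fold dilution series (top 10 uM, ≤0.25% DMSO). Lysates analysed by one-step RT-qPCR for canonical exon-exon junction transcripts, normalized to GAPDH, GUSB or PPIA and DMSO control (2^(−ΔΔCt)), then converted to percentage response.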

[2] = system: MYB; test: Protein abundance, HiBit-assay system (Promega), MYB; assay type: cell-based; conditions: Table 6; HiBiT-modified K562 cells, 24 hours
Excerpt: In some embodiments, a compound of Formula (I) or (II) or a pharmaceutically acceptable salt thereof, e.g., as described herein, modulates the expression of a target protein (e.g., HTT or MYB) in a reference cell or sample. In an embodiment, a compound of Formula (I) or (II) or a pharmaceutically acceptable salt thereof, e.g., as described herein, increases the expression of a target protein (e.g., HTT or MYB) in a reference cell or sample. In an embodiment, a compound of Formula (I) or (II) or a pharmaceutically acceptable salt thereof, e.g., as described herein, decreases the expression of a target protein (e.g., HTT or MYB) in a reference cell or sample. The effect of an exemplary compound of Formula (I) or (II) on protein abundance may be measured using a standard assay for measuring protein abundance, such as the HiBit-assay system (Promega). In this assay, percent response for each respective cell line may be as calculated at each compound concentration as follows: % response=100*(S−PC)/(NC−PC). For the normalized response at each concentration, a four-parameter logistical regression may be fit to the data and the response may be interpolated at the 50% value to determine a concentration for protein abundance at 50% (IC50) an untreated control. In an embodiment, a compound of Formula (I) or (II) or a pharmaceutically acceptable salt thereof, e.g., as described herein, has a protein abundance response less than 100 nM. In an embodiment, a compound of Formula (I) or (II) or a pharmaceutically acceptable salt thereof, e.g., as described herein, has a protein abundance response between 100-1000 nM. In an embodiment, a compound of Formula (I) or (II) or a pharmaceutically acceptable salt thereof, e.g., as described herein, has a protein abundance response greater than 1000 nM. In an embodiment, a compound of Formula (I) or (II) or a pharmaceutically acceptable salt thereof, e.g., as described herein, has a protein abundance response greater than 10 uM. In an embodiment, a compound of Formula (I) or (II) or a pharmaceutically acceptable salt thereof, e.g., as described herein, modulates the protein abundance of a target protein by about 1%, 5%, 10%, 15%, 20%, 25%, 30%, 35%, 40%, 45%, 50%, 55%, 60%, 65%, 70%, 75%, 80%, 85%, 90%, 95%, 99% or more, e.g., compared with a reference compound.

[3] = system: Target C mRNA; test: Splicing RT-qPCR gene panel, Target C canonical junction (CJ) mRNA; assay type: cell-based, human; conditions: Homo sapiens, Tables 4A/4B, read-out: Target C (IC50, decrease in CJ mRNA, gene panel)
Summary of the method: as §1

[4] = system: HTT mRNA; test: Splicing RT-qPCR gene panel, HTT canonical junction (CJ) mRNA; assay type: cell-based, human; conditions: Homo sapiens, Tables 4A/4B, read-out: HTT (IC50, decrease in CJ mRNA, gene panel)
Summary of the method: as §1

[5] = system: MYB mRNA; test: Splicing RT-qPCR assay, MYB canonical (CJ) and alternative (AJ) junction mRNA; assay type: cell-based, human; conditions: Homo sapiens
Summary of the method: (§2)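 Compound-induced exon inclusion is tracked as an increase in AJ transcript alongside the CJ transcript. Cells (A673 normalized to PPIA; K562 to GAPDH or GUSB) are dosed 24 h with a serial dilution topping at 10 uM, ≤0.25% DMSO, then lysed and analysed by RT-qPCR in at least duplicate.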

[6] = system: K562 cells; test: Cell Titer Glo 2.0 cell viability assay, K562; assay type: cell-based; conditions: Homo sapiens, 72 hours incubation
Method: Compounds described herein were screened for toxicity in K562 (human chronic myelogenous leukemia) and SH-SY5Y (human neuroblastoma) cells using a Cell Titer Glo 2.0 assay.
• Promega CellTiter-Glo® 2.0 Cell Viability Assay (cat #G9241) • Corning 384-well TC-treated microplates (cat #3570)
Cells were plated at 500 cells/well (K562 cells) in 45 μL of IMDM supplemented with 10% FBS in a 384-well opaque plate. Wells containing only medium were used as a blank control. Test compounds (e.g., compounds of Formula (I) or (II)) were first serially diluted in DMSO then diluted 1:100 with EIDM+10% FBS. The final concentration of DMSO was 0.1% in each well. The cells were incubated for 72 hours at 37° C. and 5% CO2 before assaying with Cell Titer Glo 2.0 reagent.

[7] = system: HTT mRNA; test: Splicing RT-qPCR assay, HTT canonical (CJ) and alternative (AJ) junction mRNA; assay type: cell-based, human; conditions: Homo sapiens
Summary of the method: as §2

[8] = Tables 4A/4B, canonical junction qPCR panel, read-out: MYB (IC50, decrease in CJ mRNA, gene panel)
[9] = Table 3B, alternative junction mRNA, read-out: HTT AJ (AC50, increase in AJ mRNA)
[10] = Table 3B, canonical junction mRNA, read-out: HTT CJ (IC50, decrease in CJ mRNA)
[11] = Table 3B, canonical junction mRNA, RT-qPCR, read-out: MYB CJ (IC50, decrease in CJ mRNA)
[12] = Table 3B, alternative junction mRNA, RT-qPCR, read-out: MYB AJ (AC50, increase in AJ mRNA)

Row | Compound | IC50 [1] [µM] | IC50 [2] | IC50 [3] [µM] | IC50 [4] [µM] | IC50 [5, 8] [µM] | GI50 [6] [µM] | IC50 ([7]; 24 h, A673 or K562 cells, 24 hours compound treatment, read-out: HTT CJ (IC50, decrease in canonical junction mRNA)) [µM] | AC50 ([7]; A673 or K562 cells, 24 hours compound treatment, read-out: HTT AJ (AC50, increase in alternative junction mRNA)) [µM] | AC50 ([5]; 24 h, A673 or K562 cells, 24 hours compound treatment, RT-qPCR, read-out: MYB AJ (AC50, increase in alternative junction mRNA)) [µM] | IC50 ([5]; 24 h, A673 or K562 cells, 24 hours compound treatment, RT-qPCR, read-out: MYB CJ (IC50, decrease in canonical junction mRNA)) [µM] | AC50 [7, 9] [µM] | IC50 [7, 10] [µM] | IC50 [5, 11] [µM] | AC50 [5, 12] [µM]
1 | Cc1cn2cc(NC(=O)c3ccc(C4CCNCC4)c4oc(C)nc34)cc(F)c2n1 [Compound 187] | < 0.1 | 0.1 to 1 µM and < 0.1 µM | 1 to 10 | 0.1 to 1 | 0.1 to 1 | 0.1 to 1 | – | – | – | – | – | – | – | –
2 | Cc1cn2cc(NC(=O)c3ccc(N(C)C4CCN(C)CC4)c4cc(C)oc34)cc(F)c2n1 [Compound 200] | < 0.1 | – | 1 to 10 | 1 to 10 | 1 to 10 | 1 to 10 | 1 to 10 | 1 to 10 | 1 to 10 | 1 to 10 | – | – | – | –
3 | CCn1cc2c(N3CCC(N)(CC)CC3)ncc(C(=O)Nc3cc(F)c4nc(C)cn4c3)c2n1 [Compound 969] | < 0.1 | – | 1 to 10 | 1 to 10 | < 0.1 | – | – | – | – | – | > 10 | 1 to 10 | < 0.1 | < 0.1
4 | Cc1cn2cc(NC(=O)c3ccc(N4C[C@@H](C)N[C@@H](C)C4)c4csnc34)cc(F)c2n1 [Compound 971] | < 0.1 | – | 0.1 to 1 | 0.1 to 1 | < 0.1 | – | – | – | – | – | 0.1 to 1 | 0.1 to 1 | < 0.1 | < 0.1
5 | Cc1cn2cc(NC(=O)c3ccc(N4CC[C@@H](NC5CC5)C4)c4csnc34)cc(F)c2n1 [Compound 973] | < 0.1 | – | 1 to 10 | 1 to 10 | < 0.1 | – | – | – | – | – | 1 to 10 | 1 to 10 | < 0.1 | < 0.1
6 | Cc1cn2cc(NC(=O)c3ccc(N4CCC(NC5CC5)CC4)c4csnc34)cc(F)c2n1 [Compound 974] | < 0.1 | – | 0.1 to 1 | 0.1 to 1 | < 0.1 | – | – | – | – | – | 0.1 to 1 | 0.1 to 1 | < 0.1 | < 0.1
7 | Cc1cn2cc(NC(=O)c3c(F)cc(N4CC[C@@H](NC5CCC5)C4)c4csnc34)cc(F)c2n1 [Compound 976] | < 0.1 | – | 1 to 10 | 0.1 to 1 | < 0.1 | – | – | – | – | – | 1 to 10 | 0.1 to 1 | < 0.1 | < 0.1
8 | Cc1cn2cc(NC(=O)c3ccc(N4C[C@@H](C)N[C@@H](C)C4)c4nsnc34)cc(F)c2n1 [Compound 978] | < 0.1 | – | 1 to 10 | 0.1 to 1 | < 0.1 | – | – | – | – | – | 0.1 to 1 | 0.1 to 1 | < 0.1 | < 0.1
9 | Cc1cn2cc(NC(=O)c3ccc(N4CCC(N(C)C)CC4)c4csnc34)cc(F)c2n1 [Compound 979] | < 0.1 | – | 1 to 10 | 0.1 to 1 | < 0.1 | – | – | – | – | – | 0.1 to 1 | 0.1 to 1 | < 0.1 | < 0.1
